According to PubChem BioAssay (NCI):
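The compound was tested at five concentrations on cells cultured in 96-well plates, with a 48-hour exposure period. TGI denotes the concentration required for complete inhibition of growth.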

Experiments:
Assay in all cases: NCI-60 cell line screen, 48 h
HS 578T breast = system: HS 578T breast
786-0 renal = system: 786-0 renal
NCI-H226 lung = system: NCI-H226 lung
UACC-62 melanoma = system: UACC-62 melanoma
MALME-3M melanoma = system: MALME-3M melanoma
IGROV1 ovarian = system: IGROV1 ovarian
HL-60(TB) leukemia = system: HL-60(TB) leukemia
EKVX NSCLC = system: EKVX NSCLC
MOLT-4 leukemia = system: MOLT-4 leukemia
COLO 205 colon = system: COLO 205 colon
SK-MEL-5 melanoma = system: SK-MEL-5 melanoma
U251 CNS = system: U251 CNS
SR leukemia = system: SR leukemia
DU-145 prostate = system: DU-145 prostate
NCI-H460 lung = system: NCI-H460 lung
HT29 colon = system: HT29 colon
SN12C renal = system: SN12C renal
MDA-MB-435 = system: MDA-MB-435
TK-10 renal = system: TK-10 renal
MDA-N = system: MDA-N
ACHN renal = system: ACHN renal
NCI-H23 lung = system: NCI-H23 lung
BT-549 breast = system: BT-549 breast
A498 renal = system: A498 renal
CAKI-1 renal = system: CAKI-1 renal
SNB-19 CNS = system: SNB-19 CNS
UO-31 renal = system: UO-31 renal
LOX IMVI melanoma = system: LOX IMVI melanoma
OVCAR-3 ovarian = system: OVCAR-3 ovarian
CCRF-CEM leukemia = system: CCRF-CEM leukemia
PC-3 prostate = system: PC-3 prostate
SK-OV-3 ovarian = system: SK-OV-3 ovarian
T-47D breast = system: T-47D breast
SF-539 CNS = system: SF-539 CNS
MDA-MB-231 breast = system: MDA-MB-231 breast
SNB-75 CNS = system: SNB-75 CNS
SF-295 CNS = system: SF-295 CNS
OVCAR-8 ovarian = system: OVCAR-8 ovarian
UACC-257 melanoma = system: UACC-257 melanoma
HCC-2998 colon = system: HCC-2998 colon
A549 NSCLC = system: A549 NSCLC
SF-268 CNS = system: SF-268 CNS
M14 melanoma = system: M14 melanoma
HCT-15 colon = system: HCT-15 colon
NCI/ADR-RES ovarian = system: NCI/ADR-RES ovarian
KM12 colon = system: KM12 colon
RPMI-8226 leukemia = system: RPMI-8226 leukemia
RXF 393 renal = system: RXF 393 renal
OVCAR-5 ovarian = system: OVCAR-5 ovarian
HOP-92 NSCLC = system: HOP-92 NSCLC
MCF7 breast = system: MCF7 breast
K-562 leukemia = system: K-562 leukemia
HCT-116 colon = system: HCT-116 colon
SK-MEL-28 melanoma = system: SK-MEL-28 melanoma
NCI-H522 lung = system: NCI-H522 lung
HOP-62 NSCLC = system: HOP-62 NSCLC
SW-620 colon = system: SW-620 colon
OVCAR-4 ovarian = system: OVCAR-4 ovarian
SK-MEL-2 melanoma = system: SK-MEL-2 melanoma

Measured: TGI

O=C(/C(=C(/Br)I)c1ccccc1)c1ccccc1
54.3 µM: BT-549 breast
41.8 µM: SK-MEL-5 melanoma
37.2 µM: NCI-H460 lung
41.3 µM: UO-31 renal
69.6 µM: SF-295 CNS
37.7 µM: SF-539 CNS
89.1 µM: EKVX NSCLC
32.3 µM: LOX IMVI melanoma
47.2 µM: RPMI-8226 leukemia
59.8 µM: T-47D breast
43.8 µM: UACC-257 melanoma
46.2 µM: MOLT-4 leukemia
30.4 µM: CCRF-CEM leukemia
36.5 µM: COLO 205 colon
31 µM: M14 melanoma
36.1 µM: HT29 colon
81.9 µM: MDA-N
48.3 µM: OVCAR-8 ovarian
30.9 µM: DU-145 prostate
82.6 µM: MDA-MB-435
34.4 µM: UACC-62 melanoma
48.5 µM: SF-268 CNS
40.4 µM: NCI-H226 lung
37.4 µM: NCI/ADR-RES ovarian
49.9 µM: SN12C renal
30.1 µM: HCC-2998 colon
35.6 µM: HOP-92 NSCLC
28.7 µM: A498 renal
39.5 µM: 786-0 renal
60.1 µM: MDA-MB-231 breast
71 µM: SNB-75 CNS
53.1 µM: U251 CNS
79.3 µM: HCT-15 colon
42 µM: OVCAR-3 ovarian
71.2 µM: ACHN renal
31.6 µM: RXF 393 renal
31.7 µM: HCT-116 colon
38 µM: KM12 colon
39.3 µM: K-562 leukemia
94.4 µM: MCF7 breast
69.1 µM: TK-10 renal
33.2 µM: MALME-3M melanoma
not listed: SK-MEL-28 melanoma | NCI-H522 lung | HOP-62 NSCLC | SW-620 colon | OVCAR-4 ovarian | SK-MEL-2 melanoma
> 100 µM: all other assays above

O=C1CC(C(O)CO)CC(=O)N1 (stereo not given)
not listed: UACC-62 melanoma | EKVX NSCLC | MOLT-4 leukemia | COLO 205 colon | SK-OV-3 ovarian | SNB-75 CNS | RXF 393 renal | OVCAR-4 ovarian | SK-MEL-2 melanoma
> 100 µM: all other assays above

N/C(CC(=O)Nc1cc(C(F)(F)F)ccc1Cl)=N\O
not listed: CCRF-CEM leukemia | HCC-2998 colon
> 100 µM: all other assays above

OCC1CCCC(n2cnc3c(=S)nc[nH]c32)O1 (stereo not given)
not listed: HL-60(TB) leukemia | MOLT-4 leukemia | CCRF-CEM leukemia | SF-539 CNS
> 100 µM: all other assays above
